# Columns and labels:
# sGC α1/β1 heterodimer = sGC α1/β1 heterodimer (Homo sapiens (Human), UniProt Q02108+Q02153); experiment: Cell-based sGC functional assay (CASA assay), cGMP by HTRF; conditions: CHO-K1/sGC cells; for % Activation: cGMP production as percentage of maximum of compound A (set to 100%); for EC50: inflection point of cGMP production, 4P fit, read-out: IP; for Emax: CHO-K1, cGMP production as percentage of maximum of compound A (set to 100%), read-out: % Activation
# Summary of the method: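 cGMP made in CHO-K1/sGC (human α1/β1) cells is read by HTRF after compound treatment for 1 hr at 37° C, following 30 min at 25° C with or without 1 μM DETA-NO; IBMX 0.5 mM present. Values are % of standard compound maximum; 4P fit.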
# [1] = molecular target: human recombinant sGC enzyme (Homo sapiens (Human), UniProt Q02108+Q02153); experiment: SEC competition binding assay with [3H] Compound B radioligand; conditions: displacement of 1.6 nM [3H] Compound B, 24 h at 37° C.
# Summary of the method: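 Competition format: [3H] Compound B (1.6 nM) displaced from human recombinant sGC over 24 h at 37° C. in triethanolamine pH 7.4 buffer with MgCl2, BSA, DTT, 300 μM DETA/NO and 400 μM GTP (1% DMSO). Gel-filtration eluates counted by liquid scintillation; 1 μM Compound B defined non-specific binding; Ki by one-site fit.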
% Activation (sGC α1/β1 heterodimer) [%],EC50 (sGC α1/β1 heterodimer) [nM],Ki [1] [nM],Emax (sGC α1/β1 heterodimer) [%],Structure (SMILES)
121,39,3.79,,"CC1CCC(Cc2nc(-c3nc(N)c4c(n3)NC(=O)C4(C)c3ccc(O)c(Cl)c3)cn3ccnc23)CC1 (single isomer, unassigned) [Example 120-BB, 4-Amino-5-(3-chloro-4-hydroxyphenyl)-5-methyl-2-{8-[(4-methylcyclo-hexyl)methyl]imidazo-[1,2-a]pyrazin-6-yl}-5,7-dihydro-6H-pyrrolo-[2,3-d]pyrimidin-6-one]"
96,292,0.347,,"CC1(c2ccc(Cl)c(O)c2)C(=O)Nc2nc(-c3cn4ccnc4c(Cc4cccc(F)c4)n3)nc(NCC(O)C(F)(F)F)c21 (stereo not drawn) [Example 131-AB, 5-(4-Chloro-3-hydroxyphenyl)-2-{8-[(3-fluorophenyl)methyl]imidazo[1,2-a]pyrazin-6-yl}-5-methyl-4-[(3,3,3-trifluoro-2-hydroxypropyl)amino]-5,7-dihydro-6H-pyrrolo[2,3-d]pyrimidin-6-one]"
,25,0.128,132,"CC1(c2cc(O)c(Cl)c(F)c2)C(=O)Nc2nc(-c3cn4ncnc4c(Cc4ccccc4F)n3)nc(N)c21 (stereo not drawn) [Example 10-B, 4-Amino-5-(4-chloro-3-fluoro-5-hydroxyphenyl)-2-{8-[(2-fluorophenyl)methyl]-[1,2,4]triazolo[1,5-a]pyrazin-6-yl}-5-methyl-5,7-dihydro-6H-pyrrolo[2,3-d]pyrimidin-6-one]"
,4380,1.92,138,"CC1(c2ccc(O)c(Cl)c2)C(=O)Nc2nc(-c3cn4ccnc4c(Cc4ccc(F)cc4)n3)nc(N)c21 (stereo not drawn) [Example 60-B, 4-Amino-5-(3-chloro-4-hydroxyphenyl)-2-{8-[(4-fluorophenyl)methyl]imidazo[1,2-a]pyrazin-6-yl]-5-methyl-5,7-dihydro-6H-pyrrolo[2,3-d]pyrimidin-6-one]"
,1570,0.565,120,"Cc1cc(C2(C)C(=O)Nc3nc(-c4cn5ccnc5c(Cc5cccc(F)c5)n4)nc(N)c32)ccc1O (stereo not drawn) [Example 45-A, 4-Amino-2-{8-[(3-fluorophenyl)methyl]imidazo[1,2-a]pyrazin-6-yl}-5-(4-hydroxy-3-methylphenyl)-5-methyl-5,7-dihydro-6H-pyrrolo[2,3-d]pyrimidin-6-one]"
,16,1.78,112,"CC1(c2cc(Cl)c(O)c(Cl)c2)C(=O)Nc2nc(-c3cn4ncnc4c(CC4CCCCC4)n3)nc(N)c21 (stereo not drawn) [Example 112-B, 4-Amino-2-(8-(cyclo-hexylmethyl)-[1,2,4]-triazolo[1,5-a]pyrazin-6-yl)-5-(3,5-dichloro-4-hydroxyphenyl)-5-methyl-5,7-dihydro-6H-pyrrolo[2,3-d]pyrimidin-6-one]"
,333,0.592,102,"CN1CCN(c2nc(-c3cn4ccnc4c(Cc4ccc(F)cc4)n3)nc3c2C(C)(c2ccc(Cl)c(O)c2)C(=O)N3)CC1 (stereo not drawn) [Example 134-A, 5-(4-Chloro-3-hydroxy-phenyl)-2-{8-[(4-fluoro-phenyl)methyl]imidazo-[1,2-a]pyrazin-6-yl}-5-methyl-4-(4-methyl-piperazin-1-yl)-5,7-dihydro-6H-pyrrolo-[2,3-d]pyrimidin-6-one]"
,866,0.292,88,"CC1(c2ccc(Cl)c(O)c2)C(=O)Nc2nc(-c3cn4ccnc4c(Cc4ccc(F)cc4)n3)nc(N)c21 (stereo not drawn) [Example 30-A, 4-Amino-5-(4-chloro-3-hydroxyphenyl)-2-{8-[(4-fluorophenyl)methyl]imidazo[1,2-a]pyrazin-6-yl}-5-methyl-5,7-dihydro-6H-pyrrolo[2,3-d]pyrimidin-6-one]"
,313,3.46,121,"CC1(c2ccc(O)c(F)c2)C(=O)Nc2nc(-c3cn4ccnc4c(CCC4CCCCC4)n3)nc(N)c21 (stereo not drawn) [Example 84-B, 4-Amino-2-(8-(2-cyclohexylethyl)imidazo[1,2-a]pyrazin-6-yl)-5-(3-fluoro-4-hydroxyphenyl)-5-methyl-5,7-dihydro-6H-pyrrolo[2,3-d]pyrimidin-6-one]"
,70,0.676,103,"CC(C)CCc1nc(-c2nc(N)c3c(n2)NC(=O)C3(C)c2ccc(F)c(O)c2)cn2ccnc12 (stereo not drawn) [Example 47-B, 4-Amino-5-(4-fluoro-3-hydroxyphenyl)-2-(8-isopentylimidazo[1,2-a]pyrazin-6-yl)-5-methyl-5,7-dihydro-6H-pyrrolo[2,3-d]pyrimidin-6-one]"
,98,0.153,116,"CC1(c2cc(O)c(Cl)c(F)c2)C(=O)Nc2nc(-c3cn4ccnc4c(CC4CCCCC4)n3)nc(N)c21 (stereo not drawn) [Example 12-B, 4-Amino-5-(4-chloro-3-fluoro-5-hydroxyphenyl)-2-(8-(cyclohexylmethyl)imidazo[1,2-a]pyrazin-6-yl)-5-methyl-5,7-dihydro-6H-pyrrolo[2,3-d]pyrimidin-6-one]"
,146,0.496,170,"CCCCc1nc(-c2nc(N)c3c(n2)NC(=O)C3(C)c2cc(O)c(Cl)c(F)c2)cn2ncnc12 (stereo not drawn) [Example 42-B, 4-Amino-2-(8-butyl-[1,2,4]triazolo[1,5-a]pyrazin-6-yl)-5-(4-chloro-3-fluoro-5-hydroxyphenyl)-5-methyl-5,7-dihydro-6H-pyrrolo[2,3-d]pyrimidin-6-one]"
,1200,0.905,102,"CC1(c2cc(O)c(C(F)(F)F)cn2)C(=O)Nc2nc(-c3cn4ccnc4c(CC4CCCCC4)n3)nc(N)c21 (stereo not drawn) [Example 147-B, 4-amino-2-{8-(cyclohexylmethyl)-imidazo[1,2-a]pyrazin-6-yl}-5-(4-hydroxy-5-(trifluoromethyl)pyridin-2-yl)-5-methyl-5,7-dihydro-6H-pyrrolo-[2,3-d]pyrimidin-6-one]"
,1320,2.22,125,"CC(C)CCc1nc(-c2nc(N)c3c(n2)NC(=O)C3(C)c2ccc(C(F)(F)F)c(O)c2)cn2ccnc12 (stereo not drawn) [Example 64-B, 4-Amino-5-(3-hydroxy-4-(trifluoromethyl)phenyl)-2-(8-isopentylimidazo[1,2-a]pyrazin-6-yl)-5-methyl-5,7-dihydro-6H-pyrrolo[2,3-d]pyrimidin-6-one]"
,335,1.72,109,"CC(C)CCc1nc(-c2nc(N)c3c(n2)NC(=O)C3(C)c2cccc(O)c2)cn2ccnc12 (stereo not drawn) [Example 59-B, 4-Amino-5-(3-hydroxyphenyl)-2-(8-isopentylimidazo[1,2-a]pyrazin-6-yl)-5-methyl-5,7-dihydro-6H-pyrrolo[2,3-d]pyrimidin-6-one]"
,2970,1.09,79,"CC1(c2cc(O)c(C#N)c(Cl)c2)C(=O)Nc2nc(-c3cn4ccnc4c(Cc4ccccc4F)n3)nc(N)c21 (stereo not drawn) [Example 143-A, 4-(4-amino-2-{8-(2-fluorobenzyl)imidazo-[1,2-a]pyrazin-6-yl}-5-methyl-6-oxo-6,7-dihydro-5H-pyrrolo-[2,3-d]pyrimidin-5-yl)-2-chloro-6-hydroxy-benzonitrile]"
,349,3.54,68,"CC1(c2ccc(Cl)c(O)c2)C(=O)Nc2nc(-c3cn4ncnc4c(CCC(F)(F)C(F)(F)F)n3)nc(NCCCC(F)(F)F)c21 (stereo not drawn) [Example 139-A, 5-(4-Chloro-3-hydroxy-phenyl)-5-methyl-2-(8-(3,3,4,4,4-pentafluoro-butyl)-[1,2,4]triazolo-[1,5-a]pyrazin-6-yl)-4-((4,4,4-trifluorobutyl)-amino)-5,7-dihydro-6H-pyrrolo[2,3-d]pyrimidin-6-one]"
,648,0.306,107,"CC(C)CCc1nc(-c2nc(N)c3c(n2)NC(=O)C3(C)c2cc(O)c(Cl)c(F)c2)cn2ccnc12 (stereo not drawn) [Example 32-B, 4-Amino-5-(4-chloro-3-fluoro-5-hydroxyphenyl)-2-(8-isopentylimidazo[1,2-a]pyrazin-6-yl)-5-methyl-5,7-dihydro-6H-pyrrolo[2,3-d]pyrimidin-6-one]"
,652,0.544,106,"Cc1cn2cc(-c3nc(N)c4c(n3)NC(=O)C4(C)c3ccc(Cl)c(O)c3)nc(Cc3ccccc3F)c2n1 (stereo not drawn) [Example 100-A, 4-Amino-5-(4-chloro-3-hydroxyphenyl)-2-{8-[(2-fluorophenyl)methyl]-2-methylimidazo[1,2-a]pyrazin-6-yl}-5-methyl-5,7-dihydro-6H-pyrrolo[2,3-d]pyrimidin-6-one]"
,3300,8.31,73,"CC1(c2cc(O)c(Cl)cn2)C(=O)Nc2nc(-c3cn4ccnc4c(Cc4c(F)cccc4F)n3)nc(N)c21 (stereo not drawn) [Example 98-B, 4-Amino-5-(5-chloro-4-hydroxypyridin-2-yl)-2-{8-[(2,6-difluorophenyl)methyl]imidazo[1,2-a]pyrazin-6-yl}-5-methyl-5,7-dihydro-6H-pyrrolo[2,3-d]pyrimidin-6-one]"
,169,4.62,65,"CC1(c2ccc(Cl)c(O)c2)C(=O)Nc2nc(-c3cn4ncnc4c(CCC(F)(F)C(F)(F)F)n3)nc(NCCC(F)(F)F)c21 (stereo not drawn) [Example 138-A, 5-(4-Chloro-3-hydroxy-phenyl)-5-methyl-2-(8-(3,3,4,4,4-pentafluoro-butyl)-[1,2,4]triazolo-[1,5-a]pyrazin-6-yl)-4-((3,3,3-trifluoropropyl)-amino)-5,7-dihydro-6H-pyrrolo[2,3-d]pyrimidin-6-one]"

# From patent US10780092B2, “Fused pyrazine derivatives useful as soluble guanylate cyclase stimulators” (Merck Sharp & Dohme Corp., priority 2016, dated 2020)
